# According to US8987193B2, “Nisin derivatives and the use thereof” (University College Cork—National University of Ireland, Cork, priority 2008, dated 2015):
# “Also recorded” adds a separate entry of the source. Ends that are not written are not given here.
# Assays:
# indicator strains = assay: Deferred antagonism assays, various indicator strains (summary); format: cell-based; conditions: for Strain(s) against which the derivative (producing strain) displays enhanced bioactivity: relative to nisin A-producing control, value = strains listed
# How it was run: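 Producer strains were replicated on GM17 or GM17 x-gal agar, grown overnight, then overlaid with GM17, BHI, TS or MH soft agar (0.75% w/v) seeded with the indicator strain. Zone size was taken as the clearing diameter minus the diameter of bacterial growth (5 mm).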
# [1] = test system: Strep. agalactiae ATCC13813; assay: Deferred antagonism assay; format: cell-based; conditions: producing strain, diameter of zone minus 5 mm, average of duplicates
# Staph. aureus DPC5245 = assay: Deferred antagonism assay; format: cell-based; conditions: producing strain; diameter of zone minus 5 mm; average of duplicates; St. aureus DPC5245
# How it was run: (§1)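 Producer strains replicated on GM17 agar, grown overnight, then overlaid with soft agar (0.75% w/v) seeded with indicator strain. Zone size = clearing diameter minus 5 mm growth diameter, relative to NZ9800 pCI372nisA control; mean of duplicates.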
# [2] = test system: Staph. aureus ST528 (MRSA); assay: Deferred antagonism assay; format: cell-based; conditions: producing strain, diameter of zone minus diameter of bacterial growth (5 mm), average of duplicates
# How it was run: as §1
# [3] = test system: Listeria monocytogenes 33037; assay: Deferred antagonism assay; format: cell-based; conditions: nisin strain; L. monocytogenes 33037
# Experimental: (§2) Deferred antagonism assays were performed by replicating strains on GM17 or GM17 x-gal agar plates and allowing them to grow overnight before overlaying with either GM17/BHI/TS/MH agar (0.75% w/v agar) seeded with the appropriate indicator strain. Zone size was calculated as the diameter of the zone of clearing minus the diameter of bacterial growth (5 mm) For higher throughput screening of N20PXX, XM21VX, XXK22T and XXX banks deferred antagonism assays were performed by replicating strains using a 96 pin replicator (Boekel) or spotting 5 μl of a fresh overnight culture on GM17 agar plates and allowing them to grow overnight. […] Additional sets of indicators were employed to further assess/reassess the bioactivity of a number of strains. […] For well-diffusion assays molten agar was cooled to 48° C. and seeded with the appropriate indicator strain. The inoculated medium was rapidly transferred into sterile Petri plates in 50 ml volumes, allowed to solidify and dried. Wells (4.6 mm in diameter) were then made in the seeded plates. Purified nisin and mutant nisins were resuspended in 0.005% acetic acid, serially diluted, 50 μl volumes were dispensed into the aforementioned wells and the plates incubated at 37° C. overnight. Bioactivity was expressed as arbitrary units/ml (AU/ml) and calculated as the reciprocal of the highest dilution that gave a definite zone multiplied by the conversion factor (i.e. 20 when 50 μl was used) (Ryan et al., 1996).
# [4] = test system: Listeria monocytogenes SLCC 4949; assay: Deferred antagonism assay; format: cell-based; conditions: nisin strain; L. monocytogenes SLCC 4949
# Experimental: as §2
# [5] = test system: Listeria monocytogenes 33013; assay: Deferred antagonism assay; format: cell-based; conditions: nisin strain; L. monocytogenes 33013
# Experimental: as §2
# [6] = test system: Listeria monocytogenes LO28; assay: Deferred antagonism assay; format: cell-based; conditions: nisin strain; L. monocytogenes LO28
# Experimental: as §2
# [7] = test system: Listeria monocytogenes CD83; assay: Deferred antagonism assay; format: cell-based; conditions: nisin strain; L. monocytogenes CD83
# Experimental: as §2
# [8] = test system: Listeria monocytogenes 33090; assay: Deferred antagonism assay; format: cell-based; conditions: nisin strain; L. monocytogenes 33090
# Experimental: as §2
# [9] = test system: Listeria monocytogenes CD1038; assay: Deferred antagonism assay; format: cell-based; conditions: nisin strain; L. monocytogenes CD1038
# Experimental: as §2
# [10] = test system: Listeria monocytogenes 33411; assay: Deferred antagonism assay; format: cell-based; conditions: nisin strain; L. monocytogenes 33411
# Experimental: as §2
# [11] = test system: Listeria monocytogenes 33423; assay: Deferred antagonism assay; format: cell-based; conditions: nisin strain; L. monocytogenes 33423
# Experimental: as §2
# [12] = test system: Listeria monocytogenes 33186; assay: Deferred antagonism assay; format: cell-based; conditions: nisin strain; L. monocytogenes 33186
# Experimental: as §2
# [13] = test system: Listeria monocytogenes NRRLB 33038; assay: Deferred antagonism assay; format: cell-based; conditions: nisin strain; L. monocytogenes NRRLB 33038
# Experimental: as §2
# [14] = test system: Listeria monocytogenes 33077; assay: Deferred antagonism assay; format: cell-based; conditions: nisin strain; L. monocytogenes 33077
# Experimental: as §2
# [15] = test system: Listeria monocytogenes 33007; assay: Deferred antagonism assay; format: cell-based; conditions: nisin strain; L. monocytogenes 33007
# Experimental: as §2
# L. monocytogenes CBC1 = assay: Deferred antagonism assay; format: cell-based, Listeria monocytogenes; design: key: + = Enhanced bioactivity relative to control; − = Bioactivity equal to or less than control; NA = no activity evident; conditions: producing strain; L. mono CBC1
# How it was run: (§3)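 L. lactis NZ9800 strains expressing nisin A hinge variants were replicated or spotted on GM17 agar, grown overnight, then overlaid with 0.75% w/v agar seeded with indicator. Zone size is the clearing diameter minus 5 mm colony growth.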
# L. monocytogenes CBC3 = assay: Deferred antagonism assay; format: cell-based, Listeria monocytogenes; design: key: + = Enhanced bioactivity relative to control; − = Bioactivity equal to or less than control; NA = no activity evident; conditions: producing strain; L. mono CBC3
# How it was run: as §3
# L. monocytogenes CBC2 = assay: Deferred antagonism assay; format: cell-based, Listeria monocytogenes; design: key: + = Enhanced bioactivity relative to control; − = Bioactivity equal to or less than control; NA = no activity evident; conditions: producing strain; L. mono CBC2
# How it was run: as §3
# L. monocytogenes EGDe = assay: Deferred antagonism assay; format: cell-based; design: key: −, no inhibition; (+), clear zone directly above the colony; +, 1-5 mm zone; ++, 6-10 mm zone; +++; conditions: nisin strain; Listeria monocytogenes EDGe
# Experimental: as §2
# [16] = test system: 30 L. monocytogenes and 3 L. innocua strains; assay: Deferred antagonism assay, collection of Listeria strains; format: cell-based; conditions: of 30 L. monocytogenes and 3 L. innocua strains
# Experimental: as §2
Substance,Strain(s) against which the derivative (producing strain) displays enhanced bioactivity (indicator strains),zone size relative to that of the NZ9800 pCI372nisA control [1] [%],zone size relative to that of the NZ9800 pCI372nisA control (Staph. aureus DPC5245) [%],zone size relative to that of the NZ9800 pCI372nisA control [2] [%],Activity score (zone) [3],Activity score (zone) [4],Activity score (zone) [5],Activity score (zone) [6],Activity score (zone) [7],Activity score (zone) [8],Activity score (zone) [9],Activity score (zone) [10],Activity score (zone) [11],Activity score (zone) [12],Activity score (zone) [13],Activity score (zone) [14],Activity score (zone) [15],Bioactivity relative to control (L. monocytogenes CBC1),Bioactivity relative to control (L. monocytogenes CBC3),Bioactivity relative to control (L. monocytogenes CBC2),other results
"NisinA K22A (ITSISLCTPGCKTGALMGCNMATATCHCSIHVSK; not fully specified; also: lantibiotic: lanthionine rings and dehydro residues not placed; UniProt P13068 24-57, looked up, variant K22A) [nisin A derivative, hinge substitution K22A]","L. monocytogenes K22A and L. lactis CBC8; also recorded: L. lactis CBC8 and L. monocytogenes CBC2 , and an additional 13 L. monocytogenes and 3 L. innocua; also recorded: additional 13 L. monocytogenes and 3 L. innocua, S. aureus; also recorded: ST528 and DPC5425, Strep. agalactiae ATCC 13813",137,117,126,"+ (+, 1-5 mm zone)","+ (+, 1-5 mm zone)","+ (+, 1-5 mm zone)","+ (+, 1-5 mm zone)","+ (+, 1-5 mm zone)","+ (+, 1-5 mm zone)","+ (+, 1-5 mm zone)","+ (+, 1-5 mm zone)","+ (+, 1-5 mm zone)","+ (+, 1-5 mm zone)","+ (+, 1-5 mm zone)","+ (+, 1-5 mm zone)","+ (+, 1-5 mm zone)",−,−,+,"Activity score (zone) (L. monocytogenes EGDe): + (+, 1-5 mm zone); number of strains with enhanced bioactivity (relative to the control) [16]: 16; number of strains with equal levels of bioactivity [16]: 17"
"NisinA M21G (ITSISLCTPGCKTGALMGCNGKTATCHCSIHVSK; not fully specified; also: lantibiotic: lanthionine rings and dehydro residues not placed; UniProt P13068 24-57, looked up, variant M21G) [nisin A derivative, hinge substitution M21G]","L. monocytogenes CBC2, Staph. aureus CBC4 and C. sporogenes CBC5; also recorded: L. monocytogenes CBC2 , S. aureus CBC4, ST528 , and DPC5425, Strep. agalactiae ATCC 13813, C. sporogenes CBC5 + an additional 7 L. monocytogenes and 3 L. innocua",115,123,125,"+ (+, 1-5 mm zone)","+ (+, 1-5 mm zone)","+ (+, 1-5 mm zone)","+ (+, 1-5 mm zone)","+ (+, 1-5 mm zone)","+ (+, 1-5 mm zone)","+ (+, 1-5 mm zone)","+ (+, 1-5 mm zone)","+ (+, 1-5 mm zone)","+ (+, 1-5 mm zone)","+ (+, 1-5 mm zone)","+ (+, 1-5 mm zone)","+ (+, 1-5 mm zone)",−,−,+,"relative bioactivity against the indicators of Table 6 (indicator strains; Staph. aureus ST528, DPC5245 and Strep. agalactiae ATCC 13813 taken together): approximately 120%; Activity score (zone) (L. monocytogenes EGDe): −; number of strains with enhanced bioactivity (relative to the control) [16]: 10; number of strains with equal levels of bioactivity [16]: 19; number of strains with reduced activity [16]: 4"
"NisinA M21I (ITSISLCTPGCKTGALMGCNIKTATCHCSIHVSK; not fully specified; also: lantibiotic: lanthionine rings and dehydro residues not placed; UniProt P13068 24-57, looked up, variant M21I) [nisin A derivative, hinge substitution M21I]","L. momocytogenes CBC2, Staph. aureus CBC4, C. sporogenes CBC5, L. lactis CBC7 and CBC8; also recorded: L. monocytogenes CBC2, S. aureus CBC4, C. sporogenes CBC5, L. lactis CBC7 and an additional 15 L. monocytogenes and 2 L. innocua",92,115,107,"++ (++, 6-10 mm zone)","+ (+, 1-5 mm zone)","+ (+, 1-5 mm zone)","++ (++, 6-10 mm zone)","+ (+, 1-5 mm zone)","+ (+, 1-5 mm zone)","++ (++, 6-10 mm zone)","+ (+, 1-5 mm zone)","+ (+, 1-5 mm zone)","+ (+, 1-5 mm zone)","+ (+, 1-5 mm zone)","+ (+, 1-5 mm zone)","++ (++, 6-10 mm zone)",−,−,+,"Activity score (zone) (L. monocytogenes EGDe): + (+, 1-5 mm zone); number of strains with enhanced bioactivity (relative to the control) [16]: 17; number of strains with equal levels of bioactivity [16]: 15; number of strains with reduced activity [16]: 1"
